Experimental data reported in publication PMC4457528, “Identification of Novel Small Molecule Inhibitors of Oncogenic RET Kinase” (PLoS ONE, 2015).

Tests used:
Assay in all cases: KinomeScan kinase panel, single concentration 10 µM
Type in all cases: binding
KinomeScan kinase panel [1] = biological target: T1, KinomeScan kinase panel (Homo sapiens, UniProt P15735); settings: PHKG2, 10 µM; read-out: score (%)
T1 construct: purchased DiscoveRx (KinomeScan)
T1 sequence (P15735 1-406): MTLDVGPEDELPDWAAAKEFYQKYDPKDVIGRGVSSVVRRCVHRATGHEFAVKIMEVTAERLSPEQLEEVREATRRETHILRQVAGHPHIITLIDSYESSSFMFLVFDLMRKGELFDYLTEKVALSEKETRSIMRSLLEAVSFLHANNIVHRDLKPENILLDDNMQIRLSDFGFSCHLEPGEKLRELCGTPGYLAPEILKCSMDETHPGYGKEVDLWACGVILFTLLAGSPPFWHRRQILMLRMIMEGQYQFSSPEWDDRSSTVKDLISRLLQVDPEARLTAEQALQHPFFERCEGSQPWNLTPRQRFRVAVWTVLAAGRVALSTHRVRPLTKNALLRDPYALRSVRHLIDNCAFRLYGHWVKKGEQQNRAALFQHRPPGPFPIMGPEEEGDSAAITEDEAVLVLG

KinomeScan kinase panel [2] = biological target: T2, KinomeScan kinase panel (Homo sapiens, UniProt Q96GD4); settings: AURKB, 10 µM; read-out: score (%)
T2 construct: purchased DiscoveRx (KinomeScan)

KinomeScan kinase panel [3] = biological target: T3, KinomeScan kinase panel (Homo sapiens, UniProt Q96PY6); settings: NEK1, 10 µM; read-out: score (%)
T3 construct: purchased DiscoveRx (KinomeScan)
T3 sequence (Q96PY6 1-1258): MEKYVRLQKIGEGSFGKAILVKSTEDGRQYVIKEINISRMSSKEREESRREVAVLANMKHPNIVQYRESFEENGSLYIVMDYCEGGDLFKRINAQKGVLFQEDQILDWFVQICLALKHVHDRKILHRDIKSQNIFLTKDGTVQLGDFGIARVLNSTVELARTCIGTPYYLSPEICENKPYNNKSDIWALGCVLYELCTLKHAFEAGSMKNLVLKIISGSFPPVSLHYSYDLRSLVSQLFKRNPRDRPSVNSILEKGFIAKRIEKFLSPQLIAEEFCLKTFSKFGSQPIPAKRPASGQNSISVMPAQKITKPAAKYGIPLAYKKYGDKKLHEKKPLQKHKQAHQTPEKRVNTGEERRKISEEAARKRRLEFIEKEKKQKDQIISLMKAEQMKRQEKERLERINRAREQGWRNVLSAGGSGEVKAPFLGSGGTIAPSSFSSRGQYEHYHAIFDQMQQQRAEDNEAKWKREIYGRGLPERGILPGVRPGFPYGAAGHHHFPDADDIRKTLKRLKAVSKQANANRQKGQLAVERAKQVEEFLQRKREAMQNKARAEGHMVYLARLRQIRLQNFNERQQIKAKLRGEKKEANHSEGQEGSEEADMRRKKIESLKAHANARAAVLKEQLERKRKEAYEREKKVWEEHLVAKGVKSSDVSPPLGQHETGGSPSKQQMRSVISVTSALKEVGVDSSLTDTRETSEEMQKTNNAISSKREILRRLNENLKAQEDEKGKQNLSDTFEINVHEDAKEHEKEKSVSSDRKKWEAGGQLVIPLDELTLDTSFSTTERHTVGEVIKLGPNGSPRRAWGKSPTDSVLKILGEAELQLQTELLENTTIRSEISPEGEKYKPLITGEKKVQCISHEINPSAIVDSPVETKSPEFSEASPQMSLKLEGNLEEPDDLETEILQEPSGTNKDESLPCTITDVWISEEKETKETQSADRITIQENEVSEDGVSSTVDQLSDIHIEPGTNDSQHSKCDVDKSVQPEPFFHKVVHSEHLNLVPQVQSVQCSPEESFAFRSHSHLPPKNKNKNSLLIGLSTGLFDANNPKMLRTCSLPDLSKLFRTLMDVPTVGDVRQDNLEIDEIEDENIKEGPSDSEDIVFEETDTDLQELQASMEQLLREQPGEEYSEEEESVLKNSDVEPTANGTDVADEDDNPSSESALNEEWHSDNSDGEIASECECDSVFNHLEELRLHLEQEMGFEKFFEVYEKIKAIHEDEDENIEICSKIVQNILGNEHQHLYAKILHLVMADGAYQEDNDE

KinomeScan kinase panel [4] = biological target: T4, KinomeScan kinase panel (Homo sapiens, UniProt Q16566); settings: CAMK4, 10 µM; read-out: score (%)
T4 construct: purchased DiscoveRx (KinomeScan)
T4 sequence (Q16566 1-473): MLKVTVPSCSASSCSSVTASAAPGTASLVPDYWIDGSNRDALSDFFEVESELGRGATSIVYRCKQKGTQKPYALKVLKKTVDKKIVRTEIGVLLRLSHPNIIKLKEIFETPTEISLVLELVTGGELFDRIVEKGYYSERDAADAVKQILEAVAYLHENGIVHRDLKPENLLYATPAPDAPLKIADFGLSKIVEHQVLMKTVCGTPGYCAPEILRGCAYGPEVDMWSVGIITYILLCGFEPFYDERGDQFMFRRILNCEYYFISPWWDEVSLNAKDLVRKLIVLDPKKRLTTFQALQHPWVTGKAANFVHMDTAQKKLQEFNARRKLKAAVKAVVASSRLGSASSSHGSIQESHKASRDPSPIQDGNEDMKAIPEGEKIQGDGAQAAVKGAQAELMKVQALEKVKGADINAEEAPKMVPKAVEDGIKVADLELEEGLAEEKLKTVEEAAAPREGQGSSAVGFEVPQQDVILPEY

T2 sequence (Q96GD4 whole entry): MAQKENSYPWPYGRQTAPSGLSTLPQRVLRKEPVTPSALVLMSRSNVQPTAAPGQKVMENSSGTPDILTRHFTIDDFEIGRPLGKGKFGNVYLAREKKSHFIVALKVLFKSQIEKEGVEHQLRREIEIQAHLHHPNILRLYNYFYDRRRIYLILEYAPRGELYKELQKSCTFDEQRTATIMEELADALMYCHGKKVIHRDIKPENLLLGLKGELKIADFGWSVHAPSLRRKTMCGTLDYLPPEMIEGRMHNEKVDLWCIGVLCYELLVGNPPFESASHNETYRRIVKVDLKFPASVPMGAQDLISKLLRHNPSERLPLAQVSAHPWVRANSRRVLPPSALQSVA

Row | SMILES | remaining binding at 10 µM (KinomeScan kinase panel [1]) | remaining binding at 10 µM (KinomeScan kinase panel [2]) | remaining binding at 10 µM (KinomeScan kinase panel [3]) | remaining binding at 10 µM (KinomeScan kinase panel [4])
1 | CCN1CCN(Cc2ccc(NC(=O)c3ccc(C)c(NC(=O)c4cncc(-c5cccs5)c4)c3)cc2C(F)(F)F)CC1 [ALW-II-41-27] | > 30% | > 30% | > 30% | > 30%
2 | CCN1CCN(Cc2ccc(NC(=O)c3ccc(C)c(/C=C/c4cnc5[nH]ccc5c4Cl)c3)cc2C(F)(F)F)CC1 [HG-6-63-01, (E)-3-(2-(4-chloro-1H-pyrrolo[2,3-b]pyridin-5-yl)vinyl)-N-(4-((4-ethylpiperazin-1-yl)methyl)-3-(trifluoromethyl)phenyl)-4-methylbenzamide] | > 30% | 6.6% | > 30% | > 30%
3 | CCN1CCN(Cc2ccc(NC(=O)c3ccc(C)c(C#Cc4cccnc4)c3)cc2C(F)(F)F)CC1 [XMD15-44] | 92% | 24% | > 30% | > 30%
